Experimental data reported in paper PMC6745035, “Novel tetrahydroacridine derivatives with iodobenzoic moieties induce G0/G1 cell cycle arrest and apoptosis in A549 non-small lung cancer and HT-29 colorectal cancer cells” (Molecular and Cellular Biochemistry, 2019).
Read-outs that look alike come from different tables or passages of the source.

Experiments:
EA.hy926 cells = assay: MTT cytotoxicity assay, EA.hy926; assay type: cell-based, human
Text: The EA.hy926 cells (the human umbilical vein, somatic cell hybrid) (American Type Culture Collection) are immortalized human umbilical vein endothelial cells. They have morphological, phenotypic and functional characteristics of human endothelial cells, without the limited lifespan. This cell line has been considered as a good model for anticancer drug screening and was chosen to evaluate the endothelial cytotoxicity of novel compounds.
(§1) The MTT assay was used to evaluate cell metabolic activity. The test principle is based on the determination of cell viability by measuring the metabolic activity in mitochondria. Enzymatically active mitochondria reduce the water-soluble MTT (3-(4,5-dimethylthiazol-2-yl)-2,5 diphenyltetrazoliumbromide) to blue–violet insoluble formazan. The number of viability cells is proportional to the colour intensity determined by photometric measurements (an analytical wavelength 570 nm) after dissolving the formazan in Dimethylsulfoxide (DMSO) (Serva) and Sorensen’s glycine buffer. MTT (Sigma Aldrich) was dissolved in Phosphate Buffered Saline (PBS) (PAN-Biotech) at a concentration of 0.5 mg/mL. Sorensen’s glycine buffer is made of 0.1 M glycine and 0.1 M NaCl, at pH 10.5. Studied compounds were dissolved in DMSO in order to receive stock solutions.
(§2) For the assay, cells were seeded into 96-well plates at density 10^4 cells per well and cultured for 24 h at 37 °C and 5% CO2. Then medium was removed, and cells were exposed to the 100 µL of the compound solutions over a range of concentrations (final DMSO concentration was below 0.2%) or nothing but culture medium (blank control). Pure DMSO was used as a positive control. After 24 h of incubation with the compound solutions, medium was removed and 50 µL of the MTT solution was added to each well and incubated in the dark for additional 2 h at 37 °C. Then the MTT solution was carefully removed and 100 µL of DMSO was added. Plates were incubated for 10 min at room temperature. Finally, 5 µL of Sorensen Buffer was added to each well. Plate was swayed, and the absorbance was measured by using microplate reader (Synergy H1, BioTek, Winooski, VT, USA) at a wavelength of 570 nm. The cell viability was expressed as a percentage of the control values (blank). The experiments were done in triplicate.

HT-29 cells [1] = assay: MTT cytotoxicity assay, HT-29; assay type: cell-based; conditions: Homo sapiens, read-out: IC50 µM ± SD against HT-29
Text: as §1, §2

A549 cells = assay: MTT cytotoxicity assay, A549; assay type: cell-based, human
Text: A549 cell line (lung carcinoma from human) (European Collection of Cell Culture) and HT-29 cell line (colorectal adenocarcinoma from human) (American Type Culture Collection) were chosen to evaluate the cytotoxicity of novel compounds.
as §1, §2

[2] = molecular target: T1, hyaluronidase from bovine testes Type I-S (Bos taurus, UniProt Q2YDK3); assay: Hyaluronidase inhibition assay (turbidimetric); assay type: biochemical; conditions: read-out: HYAL IC50 ± SD
T1 construct: purchased Sigma Aldrich; host or cells: bovine testes (tissue-derived preparation)
T1 sequence (Q2YDK3 36-553): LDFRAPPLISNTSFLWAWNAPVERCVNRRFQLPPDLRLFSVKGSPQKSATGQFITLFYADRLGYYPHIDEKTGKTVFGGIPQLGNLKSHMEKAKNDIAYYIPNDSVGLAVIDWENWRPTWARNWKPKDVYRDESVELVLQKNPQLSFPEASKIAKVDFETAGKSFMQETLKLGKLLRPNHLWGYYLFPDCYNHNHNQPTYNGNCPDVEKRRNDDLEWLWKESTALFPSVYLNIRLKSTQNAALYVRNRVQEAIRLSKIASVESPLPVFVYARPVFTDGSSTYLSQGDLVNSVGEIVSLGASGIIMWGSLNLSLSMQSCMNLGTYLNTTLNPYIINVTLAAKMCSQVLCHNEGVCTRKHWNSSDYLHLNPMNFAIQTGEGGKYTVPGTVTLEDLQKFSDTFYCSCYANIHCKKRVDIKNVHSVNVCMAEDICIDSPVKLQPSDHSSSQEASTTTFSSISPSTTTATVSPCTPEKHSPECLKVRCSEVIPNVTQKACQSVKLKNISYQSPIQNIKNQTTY

HT-29 cells [3] = assay: Reactive oxygen species assay (DCFH-DA), HT-29; assay type: cell-based, human; conditions: compound at IC50 24 h plus H2O2, H2O2 only 1.88-fold
Procedure: After incubation, compounds were added into the wells and further incubated for next 24 h. H2O2 (1 mM) was added at 22nd h of incubation with compounds. H2O2 was used as a positive control. 30 min before the analysis, DCFH-DA (20 µM) was added to the wells. After incubation, cells were harvested and washed in PBS. Then, cells were centrifuged at 1500 rpm for 10 min. Medium was removed and cells were suspended in PBS. Analysis was performed on BD Accuri C6 Flow Cytometry (Becton–Dickinson).

supercoiled pUC19 DNA = conditions: 100 µM; human Topoisomerase I
PARP-1 = assay: Western blot of PARP-1 cleavage, HT-29; assay type: cell-based, human; conditions: HT-29, 24 h, IC50 and 1/2IC50
Procedure: (§3) Then, cells were treated with chosen compounds. After 24 h of incubation, monolayer and supernatant were harvested and washed in cold PBS. Cells were centrifuged—monolayer at 1200 rpm for 10 min, supernatant 3500 rpm for 10 min. Pellets were dissolved in RIPA Lysis and Extraction buffer (Bio-Rad) containing Phosphatase Inhibitor Cocktail 3 (Sigma Aldrich) and Protease Inhibitor Cocktail (Sigma Aldrich). Samples were incubated in ice for 30 min and mixed every 10 min. Then, samples were centrifuged at 12,000 rpm for 25 min. Protein concentration in supernatants was measured in triplicate using a Protein Assay (Bio-Rad). Proteins were separated by SDS–polyacrylamide gel electrophoresis. Separating and stacking gels were made of different ratios of water, Tris–HCl pH 6.8 and pH 8.8, 10% SDS (Sigma Aldrich), Acrylamide/bis-acrylamide (Sigma Aldrich), 10% APS (Sigma Aldrich), TEMED (Sigma Aldrich). 7.5% gels were prepared for analysis PARP-1, whereas 12% gels prepared for γ-H2AX. After separation on SDS–polyacrylamide gels, proteins were electroblotted on nitrocellulose membrane in Transfer Buffer (Glycine, Tris, Methanol). Membranes were washed in TBS/0.1% or 0.05% Tween20 solution and blocked in Tris-buffered saline with 5% of non-fated dried milk for 1 h. Membranes were then incubated overnight with primary antibodies—anti-PARP-1 (Cell Signaling Technology), anti-γ-H2A.X (Cell Signaling Technology), anti-β-actin (Cell Signaling Technology) in cold room (6 °C). After incubation, membranes well washed with TBS/Tween solution and blocked with and horseradish peroxidase-conjugated secondary antibodies (Bio-Rad) for 1 h in cold room. Protein bands were visualized using ECL™ Prime Western Blotting Detection Reagents (Sigma Aldrich) Healthcare and Carestream Kodak autoradiography GBX fixer/replenisher (Sigma Aldrich) with Developer and Replenisher (Carestream) in the dark room. Results were obtained on Autoradiography Film (Santa Cruz Biotechnology). Densitometric analysis was performed by using a software program (ImageJ). […]

SH-SY5Y cells [4] = assay: Cytoprotection against rotenone/oligomycin A, pre-incubation, MTT; assay type: cell-based, human; conditions: for Cytoprotection: pre-incubation with rotenone/oligomycin A;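 on Cytoprotection: Toxic mixture Rotenone 30 µM plus Oligomycin A 10 µM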
Procedure: Rotenone with oligomycin A (R/O) were taken to induce mitochondrial ROS by blocking of complexes I and V of the mitochondrial electron transport chain. It causes free radical production and blockade of ATP synthesis. In the pre-incubation experiment, it could be assessed whether the compounds have cytoprotective properties due to the activation of endogenous antioxidant pathways. In the co-incubation could be shown whether compounds are free-radical scavengers. MTT assay was a test of choice, because in this assay mitochondrial activity is measured. […] It can be determined whether novel compound would protect cells from both apoptotic and necrotic death resulting from the increase of intracellular ROS. In both experiments, trolox was used as a reference compound. […] After this time, toxic mixture was added, and cells were maintained for an additional 24 h in the presence of the compounds.

SH-SY5Y cells [5] = assay: Cytoprotection against H2O2 (100 µM), MTT; conditions: for Cells viability (%) ± SD after 24 h of incubation with compound and H2O2: H2O2 only 82.74%; for viability at 1 µM: Homo sapiens, 24 h, read-out: Cells viability (%) ± SD after 24 h of incubation with compound and H2O2
γ-H2AX = assay: Western blot of γ-H2AX, HT-29; assay type: cell-based, human; conditions: HT-29, 24 h, IC50 and 1/2IC50
Procedure: as §3

SH-SY5Y cells [6] = assay: Cytoprotection against rotenone/oligomycin A, co-incubation, MTT; assay type: cell-based, human; conditions: co-incubation with rotenone/oligomycin A
Procedure: In the co-incubation assay, compounds and mixture of R/O were incubated together for 24 h. […] It turned out that none of the compounds (apart from 1i at the concentration of 0.001 µM and cytoprotection of 2.99%) had cytoprotective properties in the whole range of concentrations (Fig. 17). Compounds were not able to capture free radicals; therefore they cannot be classified as free-radical scavengers.

[7] = Homo sapiens, A549, MTT, 24 h incubation, read-out: IC50 µM ± SD against A549

## O=c1[nH]cc(F)c(=O)[nH]1 [5-Fluorouracil, reference compound]
EA.hy926 cells; Homo sapiens, EA.hy 926, MTT, 24 h incubation, read-out: IC50 µM ± SD against EA.hy926
  IC50: > 1800 µM
HT-29 cells [1]; HT-29, MTT, 24 h incubation
  IC50: 1630 ± 49.3 µM

## O=C(NCCNc1c2c(nc3ccccc13)CCCC2)c1ccccc1I [Compound 1a]
HT-29 cells [1]; HT-29, MTT, 24 h incubation
  IC50: 17.3 ± 1.22 µM
A549 cells; [7]
  IC50: 36 ± 1.74 µM
[2]
  IC50: 234 ± 7.9 µM

## O=C(NCCNc1c2c(nc3ccccc13)CCCC2)c1cccc(I)c1 [Compound 1d]
HT-29 cells [1]; HT-29, MTT, 24 h incubation
  IC50: 7.62 ± 0.19 µM
A549 cells; [7]
  IC50: 41.2 ± 1.27 µM
[2]
  IC50: 300 ± 6.3 µM

## O=C(NCCCCNc1c2c(nc3ccccc13)CCCC2)c1cccc(I)c1 [Compound 1f]
HT-29 cells [3]
  Increase in ROS level (DCF fluorescence) in comparison with non-treated control: 1.87 fold
EA.hy926 cells; Homo sapiens, EA.hy 926, 24 h, read-out: IC50 µM ± SD against EA.hy926, MTT, 24 h incubation
  IC50: 11.7 µM
EA.hy926 cells; read-out: IC50 µM ± SD against EA.hy926, MTT, 24 h incubation
  IC50: 12.4 ± 1.31 µM
HT-29 cells [1]; HT-29, 24 h
  IC50: 8.52 ± 0.1 µM
Supercoiled pUC19 DNA
  Intercalation: supercoiled pUC19 DNA band (in words): bands at the same level as EB
A549 cells; Homo sapiens, A549, 24 h, read-out: IC50 µM ± SD against A549, MTT, 24 h incubation
  IC50: 23.5 µM
A549 cells; read-out: IC50 µM ± SD against A549, MTT, 24 h incubation
  IC50: 26.4 ± 2.45 µM
PARP-1
  Cleaved PARP-1 (89 kDa) level (in words): lower apoptosis at IC50 concentrations
SH-SY5Y cells [4]; 0.001 µM
  Cytoprotection: 57.16%
SH-SY5Y cells [4]; 0.01 µM
  Cytoprotection: 35.65%
SH-SY5Y cells [4]; 0.1 µM
  Cytoprotection: 35.21%
SH-SY5Y cells [4]; 1 µM
  Cytoprotection: 30.81%
SH-SY5Y cells [4]; rotenone/oligomycin A, range of concentration 1–0.001 µM
  Cytoprotective properties in the pre-incubation assay (in words): showed their action against oxidative stress in the whole range of concentrations
SH-SY5Y cells [5]; H2O2 100 µM, concentration: 1b 16.26, 1c 6.79, 1e 11.75, 1f 4.26, 1i 5.90 µM
  Cells viability (%) ± SD after 24 h of incubation with compound and H2O2: 79.45 ± 9.87%
SH-SY5Y cells [5]; H2O2 100 µM, concentration: 1b 65.04, 1c 27.16, 1e 46.98, 1f 17.04, 1i 29.74 µM
  Cells viability (%) ± SD after 24 h of incubation with compound and H2O2: 23.85 ± 2.08 %
SH-SY5Y cells [5]
  viability at 1 µM: 94.3 ± 7.26%
γ-H2AX
  γ-H2AX protein level / DNA damage (in words): strongest H2AX phosphorylation

## O=C(NCCNc1c2c(nc3ccccc13)CCCC2)c1ccc(I)cc1 [Compound 1g]
HT-29 cells [1]; HT-29, MTT, 24 h incubation
  IC50: 8.16 ± 0.44 µM
A549 cells; [7]
  IC50: 20.8 ± 1.58 µM
[2]
  IC50: 191 ± 10.8 µM

## O=C(NCCCNc1c2c(nc3ccccc13)CCCC2)c1ccc(I)cc1 [Compound 1h]
HT-29 cells [1]; HT-29, MTT, 24 h incubation
  IC50: 9.4 ± 1.65 µM
A549 cells; [7]
  IC50: 21.4 ± 1.54 µM
[2]
  IC50: 201 ± 8.36 µM

## Cc1c(C)c2c(c(C)c1O)CCC(C)(C(=O)O)O2 (centres unmarked) [Trolox, 6-hydroxy-2,5,7,8-tetramethylchroman-2-carboxylic acid, reference compound]
SH-SY5Y cells [6]; 0.001 µM
  Cytoprotection: 9.08%
SH-SY5Y cells [6]; 0.01 µM
  Cytoprotection: 8.18%
SH-SY5Y cells [6]; 0.1 µM
  Cytoprotection: 4.02%
SH-SY5Y cells [6]; 1 µM
  Cytoprotection: 6.12%
SH-SY5Y cells [4]; 0.001 µM
  Cytoprotection: 0.98%
SH-SY5Y cells [4]; 1 µM
  Cytoprotection: 0.53%
SH-SY5Y cells [5]; H2O2 100 µM, 1 µM
  Cytoprotection against H2O2: 96.38%
SH-SY5Y cells [5]
  viability at 1 µM: 99.4 ± 9.81%

## COc1cc(NS(C)(=O)=O)ccc1Nc1c2ccccc2nc2ccccc12 [amsacrine, reference compound]
Supercoiled pUC19 DNA
  Intercalation: supercoiled pUC19 DNA band (in words): stronger intercalator than EB

## Heparin [reference compound]
[2]
  IC50: 56.4 ± 0.78 µM
